Measured values reported in US5236815A, “Class of masked stabilizers in photographic materials or developing solutions” (priority 1991, dated 1993).
Counter-ions that a name gives are not always drawn. Like-named read-outs stand apart in the source and are kept apart here.

Tests used:
[1] = for solubility at room temperature: water
[2] = alcoholic solution of 5-nitroindazole vs aqueous solution of I-2; in words
Experimental: A control composition (A) containing 100 g of inert gelatin in 1600 ml of water was prepared. The solution further contained matting agents and anti-halo dyes. In a second control composition (8) 300 ml of water was replaced by 300 ml of a 1% alcoholic solution of 5-nitroindazole. […] In each sample pH was adjusted to 6.5.

[3] = type: physicochemical; conditions: pH 11.5
Experimental: To said basic composition were added 0.46 mmole/l of water soluble 5-nitroindazole precursors according to the invention as specified in table 1 below. In a comparison developer 0.46 mmole of 5-nitroindazole (5-NI) was added per liter. […] Therefore a second comparison developer sample was included in which 5-nitroindazole was first dissolved in 30 ml of N-methyl-pyrrolidone (part B) and then added to the solution, replacing 30 ml of water. In each sample the pH was readjusted to 11.5 with sodium hydroxide.

SMILES	solubility at room temperature [1] [g/100 ml]	instability problems in gelatineous compositions [2]	other results
c1ccc2[nH]nnc2c1 [benzotriazole]	1.3	–	–
O=C(c1ccccc1S(=O)(=O)[O-])n1ncc2cc([N+](=O)[O-])ccc21.[K+]	–	can be overcome	solubility at room temperature ([1]; room temperature): 1.7 g/100 ml
O=C(c1ccccc1S(=O)(=O)O)n1nnc2ccccc21 [Compound I-3, 1-(2-sulphonatobenzoyl)-benzotriazole triethylamine salt]	5.8	–	–
O=[N+]([O-])c1ccc2[nH]ncc2c1 [5-nitroindazole]	–	instability problems	solubility in water [1]: 0.02 g/100 ml of water; solubility in developer solution [3]: only slightly soluble
Cc1ccc2[nH]nnc2c1 [5-methylbenzotriazole]	–	–	solubility in water ([1]; background section, no temperature given): 0.5 g/100 ml of water
